# Test results as given in ChEMBL document CHEMBL1777733, “The discovery and structure-activity relationships of pyrano[3,4-b]indole-based inhibitors of hepatitis C virus NS5B polymerase” (Bioorg Med Chem Lett, 2011).
# How the values were obtained:
# [1] = test system: Hepatitis C virus; experiment: Antiviral activity against HCV genotype 1b infected in human Huh7 cells assessed as decrease in viral NS5A levels after 3 days by ELISA; assay type: functional, organism-based, Hepacivirus hominis; conditions: Huh-7, 72 h
# [2] = Inhibition of HCV BB7 NS5B polymerase after 15 mins; parameters: species or system Hepacivirus hominis
# [3] = Inhibition of HCV BK NS5B polymerase after 15 mins; parameters: species or system Hepatitis C virus (isolate BK)
# [4] = test system: Hepatitis C virus; experiment: Antiviral activity against HCV genotype 1b infected in human Huh7 cells assessed as reduction of viral RNA level after 3 days by RT-PCR method; assay type: functional, organism-based, Hepacivirus hominis; conditions: Huh-7, 72 h
EC50 [1],IC50 [2],IC50 [3],EC50 [4],SMILES
20000 nM,130 nM,360 nM,,CCCC1(CC(=O)O)OCCc2c1[nH]c1c(C)c(OC)cc(C#N)c21 (racemic)
,3 nM,12 nM,20 nM,CC[C@H](C)[C@]1(CC(=O)O)OCCc2c1[nH]c1c(C)c(OCCn3cccn3)cc(C#N)c21
2900 nM,70 nM,70 nM,,CCCOc1cc(C#N)c2c3c([nH]c2c1C)C(CCC)(CC(=O)O)OCC3 (racemic)
3500 nM,70 nM,110 nM,,CCCC1(CC(=O)O)OCCc2c1[nH]c1c(C)c(OCC)cc(C#N)c21 (racemic)
760 nM,20 nM,30 nM,,CCC[C@]1(CC(=O)O)OCCc2c1[nH]c1c(C)c(OCc3cc(C)n(C)n3)cc(C#N)c21
390 nM,20 nM,20 nM,,CCCC1(CC(=O)O)OCCc2c1[nH]c1c(C)c(OCc3ccccn3)cc(C#N)c21 (racemic)
> 100000 nM,20000 nM,16000 nM,,CCCC1(CC(=O)O)OCCc2c1[nH]c1c(C)c(C(=O)N(C)C)cc(C#N)c21 (racemic)
,5 nM,5 nM,,CCC[C@]1(CC(=O)O)OCCc2c1[nH]c1c(C)c(OCCn3cccn3)cc(C#N)c21
26000 nM,950 nM,1100 nM,,CCCC1(CC(=O)O)OCCc2c1[nH]c1c(C)c(OCCN3CCCC3)cc(C#N)c21 (racemic)
1600 nM,20 nM,19 nM,,CCCC1(CC(=O)O)OCCc2c1[nH]c1c(C)c(OCc3cnccn3)cc(C#N)c21 (racemic)
> 100000 nM,640 nM,1200 nM,,CCCC1(CC(=O)O)OCCc2c1[nH]c1c(C)c(C(=O)NCCc3ccccn3)cc(C#N)c21 (racemic)
> 100000 nM,2000 nM,3000 nM,,CCCNC(=O)c1cc(C#N)c2c3c([nH]c2c1C)C(CCC)(CC(=O)O)OCC3 (racemic)
,2 nM,2 nM,20 nM,CC[C@H](C)[C@]1(CC(=O)O)OCCc2c1[nH]c1c(C)c(OC[C@H](C)n3cccn3)cc(C#N)c21
340 nM,7 nM,7 nM,,CCC[C@]1(CC(=O)O)OCCc2c1[nH]c1c(C)c(OC[C@@H](C)n3cccn3)cc(C#N)c21
> 100000 nM,670 nM,980 nM,,CCCC1(CC(=O)O)OCCc2c1[nH]c1c(C)c(C(=O)NCc3ccccc3)cc(C#N)c21 (racemic)
4900 nM,90 nM,40 nM,,CCCC1(CC(=O)O)OCCc2c1[nH]c1c(C)c(OCCOC)cc(C#N)c21 (racemic)
120 nM,3 nM,3 nM,,CCC[C@]1(CC(=O)O)OCCc2c1[nH]c1c(C)c(OC[C@H](C)n3cccn3)cc(C#N)c21
8300 nM,230 nM,310 nM,,CCCC1(CC(=O)O)OCCc2c1[nH]c1c(C)c(OCCc3ccncc3)cc(C#N)c21 (racemic)
> 100000 nM,970 nM,1300 nM,,CCCC1(CC(=O)O)OCCc2c1[nH]c1c(C)c(C(=O)NC)cc(C#N)c21 (racemic)
56000 nM,300 nM,540 nM,,CCCC1(CC(=O)O)OCCc2c1[nH]c1c(C)c(C(=O)NCc3ccc4c(c3)OCO4)cc(C#N)c21 (racemic)
47000 nM,200 nM,260 nM,,CCCC1(CC(=O)O)OCCc2c1[nH]c1c(C)c(O)cc(C#N)c21 (racemic)
480 nM,8 nM,6 nM,,CCC[C@]1(CC(=O)O)OCCc2c1[nH]c1c(C)c(OCc3cc(C)on3)cc(C#N)c21
,400 nM,300 nM,,CCC[C@]1(CC(=O)O)OCCc2c1[nH]c1c(C)ccc(C#N)c21
> 100000 nM,560 nM,860 nM,,CCCC1(CC(=O)O)OCCc2c1[nH]c1c(C)c(C(=O)NCCc3ncc[nH]3)cc(C#N)c21 (racemic)
19700 nM,220 nM,480 nM,,CCCC1(CC(=O)O)OCCc2c1[nH]c1c(C)c(OC(C)C)cc(C#N)c21 (racemic)
